# Experimental data: patent US10549052B2, “Nasal delivery device” (SIPNOSE LTD., priority 2012, dated 2020)
# Like-named read-outs stand apart in the source and are kept apart here.
# Legend:
# [1] = Dye deposition in the olfactory epithelium following application with the present device; format: in vivo; settings: rat, 15 microliter to one nostril with the present device, post mortem (FIG. 31B)
# Source text: Methylene Blue solution (as in Example 1) was applied to the rat nose with the present device. 15 microliter was applied to one nostril and immediately after that the animal was sacrificed and the nasal and brain tissue were exposed to follow the dye deposition.
# [2] = Method: Brain uptake of a compound with low blood-brain barrier (BBB) penetration ^11C-choline, was applied by the device of the present application (refers also as SipNose). 33.2 μCi/5.3 μmol (approx. 0.551 mg) of ^11C-choline was applied by the device of the present application to a 381 gm rat. A 45 min. dynamic PET scan was performed followed by a CT scan.
# It should be noted that in the above mentioned examples, the compressed gas is in volumes of about 15 ml and compressed to about 7 bar.
# Comparison of brain uptake of a compound with low blood-brain barrier (BBB) penetration, when applied to the nasal cavity with the device of the present application to deposition in the respiratory epithelium in the nasal cavity.
# It should be noted that in the above mentioned examples, the compressed gas is in volumes of about 5 ml and compressed to about 4 bar.
# Comparison of brain uptake of a compound with low blood-brain barrier (BBB) penetration, when applied with the present device versus intravenous (I/V) injection.
# The data shown are the average of three trials for the present device, and the average of two trials for each of the I/V administration and the general nasal administration. The bar heights are relative to the brain concentration of ^11C choline after I/V administration.
# [3] = Micro-PET-CT tissue absorption of F-DOPA, SipNose nasal application versus I/V administration; settings: rat
# Method: The objective of the experiment was to compare nasal application with SipNose device to a systemic application by IV administration of F-DOPA (that corresponds to the drug L-DOPA) by means of brain absorption (namely the target tissue) and systemic absorption (namely non relevant tissues contamination).
# • Animals were anesthetized with a Ketamine-Xylazine cocktail. • Animals were treated according to the 2 groups as below: • 1. Systemic administration of F-DOPA by I/V injection of 1 ml. Administration doses were between 17 and 83 μg, and injected radioactivity dose was around 1000 μCi. • 2. Nasal application of F-DOPA by SipNose device application of 13-20 μl. Administration doses were between 1.2 and 2.8 μg, and injected radioactivity doses were around 26 μCi. All I/V administered animals and part of the Nasal applied animals (as will be indicated) were pre-treated with 10 mg/kg Carbidopa (by IP administration) 30 min prior to L-DOPA administration to eliminate peripheral conversion to dopamine. • Animals were subjected to Micro-PET-CT. PET scans were done for 45 min following L-DOPA administration by I/V or Nasal route. • Analysis of F-DOPA absorption in the following tissues was tested: • Brain, Heart, Lungs, liver.
# [4] = rat, injected intravenously (I/V)
# [5] = rat, via the present device (FIG. 41)
smiles,measurement,setting,value
CN(C)c1ccc2nc3ccc(=[N+](C)C)cc-3sc2c1 [Methylene Blue],location of dye deposition in the nasal cavity,[1],concentrated at the olfactory epithelium
C[N+](C)(C)CCO [^11C-choline],location of deposition in the nasal cavity,"[2]; live rat, PET-CT scan, present device (FIG. 31A)",concentrated at the olfactory epithelium
same,brain uptake with the present device relative to I/V application,"[2]; rat, FIG. 38B versus FIG. 37B",more than 6 times
same,uptake to the brain,"[2]; rat, I/V injection (FIG. 39)",less than 0.2 % of the administered dose
same,uptake to the brain,"[2]; rat, SipNose nasal application, about 15 ml gas at about 7 bar, increasing gradually thereafter, 45 min dynamic PET scan",0.6 % ID/ml
same,uptake to the brain,"[2]; rat, SipNose nasal application, about 15 ml gas at about 7 bar, very shortly following administration",about 0.5 % ID/ml
same,brain uptake as share of the total drug administrated,"[2]; rat, SipNose nasal application, corresponds to the % ID/ml values",~1.2%
same,uptake entering the brain,"[2]; rat, applied with the present device (FIG. 38B)",more than 0.5 % ID/ml
same,locations of uptake,"[2]; rat, applied with the present device (SipNose)",greatest in the olfactory epithelium and least in the lungs
same,locations of uptake,"[2]; rat, applied with the present device (SipNose), listed as 11C choline",mainly to the olfactory epithelium
same,brain concentration relative to I/V administration,"[2]; rat, general nasal application, average of two trials (FIG. 40)",the same or slightly more
same,locations of uptake,[2]; [4],mostly to the liver
same,uptake to the brain,[2]; [4],about 0.1 % ID/ml
same,uptake of the radioactivity in the brain,"[2]; rat, nasal application tuned to respiratory epithelium (about 5 ml, about 4 bar), no olfactory deposition, 45 minutes after activation",less than 0.1%
same,uptake of the radioactivity in the pharynx,"[2]; rat, nasal application tuned to respiratory epithelium (about 5 ml, about 4 bar), less than a minute after activation",more than 0.4%
same,brain concentration relative to I/V administration,"[2]; rat, present SipNose device, average of three trials (FIG. 40)",more than five times as great
same,uptake to the brain,"[2]; rat, present device (FIG. 39)",more than 1 % of the administered dose
same,net uptake to non-olfactory brain tissues,[2]; [5],about 2.5 μg
same,total uptake to the brain,[2]; [5],~6 µg
same,uptake to the olfactory bulbs,[2]; [5],about 3 μg
"N[C@@H](Cc1cc(O)c(O)cc1F)C(=O)O [F-Dopa, F-DOPA]",SipNose nasal application with versus without Carbidopa pre-treatment,[3]; 10 mg/kg Carbidopa IP 30 min prior,same results whether a pre-treatment with Carbidopa was given or not
same,"brain concentrations, SipNose nasal application versus I/V",[3]; 22.5 min post treatment (t50 of the PET scan),comparable
same,peripheral uptake compared to brain uptake,"[3]; nasal application, heart, lungs, liver",lower peripheral concentrations than the brain F-Dopa concentrations
same,"percentage of absorption in peripheral tissues relative to brain absorption, nasal versus I/V","[3]; heart, lungs, liver",lower in the nasal treated animals than in the I/V treated animals
